According to ChEMBL document CHEMBL1201862, “PubChem BioAssay data set” (2004):
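Five compound concentrations were applied to cells in 96-well plates for 48 hours; endpoints were derived by simple linear interpolation of the resulting dose-response curve. Abbreviation: GI50, concentration required for 50% inhibition of growth.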 The source made the active and inactive calls. Cut-off read from the data, not from the text of the source: active = GI50 up to about 1.1 µM and inactive = higher.

Key:
Experiment in all cases: DTP human tumour cell line panel, 48 h
786-0 = system: 786-0
DU-145 = system: DU-145
HCT-15 = system: HCT-15
K562 = system: K562
M14 = system: M14
MCF7 = system: MCF7
MDA-MB-231 = system: MDA-MB-231
MDA-MB-435 = system: MDA-MB-435
MDA-N = system: MDA-N
NCI-H460 = system: NCI-H460
OVCAR-3 = system: OVCAR-3
SF-539 = system: SF-539
SK-MEL-2 = system: SK-MEL-2
SK-MEL-5 = system: SK-MEL-5
SK-OV-3 = system: SK-OV-3
SR = system: SR
U-251 = system: U-251
UACC-257 = system: UACC-257
UACC-62 = system: UACC-62
UO-31 = system: UO-31

SMILES	GI50 (786-0)	GI50 (DU-145)	GI50 (HCT-15) [µM]	GI50 (K562)	GI50 (M14)	GI50 (MCF7)	GI50 (MDA-MB-231)	GI50 (MDA-MB-435)	GI50 (MDA-N)	GI50 (NCI-H460)	GI50 (OVCAR-3)	GI50 (SF-539)	GI50 (SK-MEL-2)	GI50 (SK-MEL-5)	GI50 (SK-OV-3)	GI50 (SR)	GI50 (U-251)	GI50 (UACC-257)	GI50 (UACC-62)	GI50 (UO-31)
COC(=O)[C@@H]1CN(C(=O)CCc2ccccc2)C(=O)N1C(=O)OCc1ccccc1	> 100 µM (inactive)	> 100 µM (inactive)	> 100	> 100 µM (inactive)	> 100 µM (inactive)	> 100 µM (inactive)	> 100 µM (inactive)	> 100 µM (inactive)	> 100 µM (inactive)	59.4 µM (inactive)	> 100 µM (inactive)	> 100 µM (inactive)	> 100 µM (inactive)	> 100 µM (inactive)	> 100 µM (inactive)	> 100 µM (inactive)	> 100 µM (inactive)	> 100 µM (inactive)	> 100 µM (inactive)	> 100 µM (inactive)
CC(=O)OC(Cc1c(O)c2c(C)cccc2oc1=O)C(C)(C)O (stereo not given)	> 100 µM (inactive)	> 100 µM (inactive)	> 100	> 100 µM (inactive)	> 100 µM (inactive)	> 100 µM (inactive)	> 100 µM (inactive)	> 100 µM (inactive)	> 100 µM (inactive)	> 100 µM (inactive)	> 100 µM (inactive)	> 100 µM (inactive)	> 100 µM (inactive)	> 100 µM (inactive)	> 100 µM (inactive)	55.1 µM (inactive)	> 100 µM (inactive)	> 100 µM (inactive)	77.4 µM (inactive)	> 100 µM (inactive)
CCOC(=O)C1C(=O)CC(O)(c2ccccc2)C(C(=O)OCC)C1c1ccc(OC)cc1 (stereo not given)	22.6 µM (inactive)	47.3 µM (inactive)	19.4	5.27 µM (inactive)	10.4 µM (inactive)	27 µM (inactive)	22.2 µM (inactive)	3.24 µM (inactive)	3.18 µM (inactive)	18.2 µM (inactive)	12.4 µM (inactive)	15.6 µM (inactive)	20.1 µM (inactive)	19.1 µM (inactive)	15.8 µM (inactive)	4.23 µM (inactive)	16 µM (inactive)	58.3 µM (inactive)	21.9 µM (inactive)	61.2 µM (inactive)
COc1ccc(NC(=S)N/N=C/c2cccc(C)n2)cc1	3.98 µM (inactive)	5.56 µM (inactive)	2.31	1.62 µM (inactive)	2.4 µM (inactive)	3.59 µM (inactive)	3.9 µM (inactive)	1.04 µM (active)	1.41 µM (inactive)	3.46 µM (inactive)	3.48 µM (inactive)	6.12 µM (inactive)	6.4 µM (inactive)	3.95 µM (inactive)	4.61 µM (inactive)	3.42 µM (inactive)	4.09 µM (inactive)	2.53 µM (inactive)	2.24 µM (inactive)	3.33 µM (inactive)
O=c1oc2ccccc2cc1-c1cn2ccccc2n1	3.8 µM (inactive)	7.82 µM (inactive)	16.7	10.2 µM (inactive)	8.51 µM (inactive)	13.8 µM (inactive)	6.4 µM (inactive)	4.1 µM (inactive)	4.88 µM (inactive)	4.16 µM (inactive)	4.16 µM (inactive)	4.17 µM (inactive)	5 µM (inactive)	6.18 µM (inactive)	4.01 µM (inactive)	3.85 µM (inactive)	2.33 µM (inactive)	3.89 µM (inactive)	4.65 µM (inactive)	2.36 µM (inactive)
COC(=O)C1=C(OC(=O)/C(=C/c2ccccc2)c2ccc(Cl)cc2Cl)C(C(=O)OC)[C@@]2(O)[C@@H](C(=O)OC)[C@H](C)C[C@@H]1[C@@H]2C(=O)OC (stereo not given in full)	> 100 µM (inactive)	> 100 µM (inactive)	> 100	> 100 µM (inactive)	> 100 µM (inactive)	> 100 µM (inactive)	> 100 µM (inactive)	> 100 µM (inactive)	> 100 µM (inactive)	> 100 µM (inactive)	> 100 µM (inactive)	> 100 µM (inactive)	> 100 µM (inactive)	82.8 µM (inactive)	> 100 µM (inactive)	> 100 µM (inactive)	> 100 µM (inactive)	> 100 µM (inactive)	> 100 µM (inactive)	> 100 µM (inactive)
O=C(N/N=C\c1ccc2ccccc2c1)Nc1ccc([N+](=O)[O-])cc1	24 µM (inactive)	23.7 µM (inactive)	16.8	9.84 µM (inactive)	32.2 µM (inactive)	22.3 µM (inactive)	32.2 µM (inactive)	31.1 µM (inactive)	23.5 µM (inactive)	24.4 µM (inactive)	20.2 µM (inactive)	19.5 µM (inactive)	24 µM (inactive)	22.7 µM (inactive)	18.9 µM (inactive)	43 µM (inactive)	29.3 µM (inactive)	29 µM (inactive)	24.7 µM (inactive)	23.2 µM (inactive)
